Measured values as given in patent US8912121B2, “Herbicidal compositions comprising 4-amino-3-chloro-5-fluoro-6-(4-chloro-2-fluoro-3-methoxyphenyl)pyridine-2-carboxylic acid or a derivative thereof and certain PS II inhibitors” (Dow Agrosciences LLC, priority 2012, dated 2014).

Test system: SCPMA (Schoenoplectus maritimus, sea clubrush)
Assay: In-water applied mixtures, transplanted paddy rice, greenhouse
Assay type: in vivo, Schoenoplectus maritimus (L.) Lye
Method: Weed seeds or nutlets of the desired test plant species were planted in puddled soil (mud) prepared by mixing a shredded, non-sterilized mineral soil (50.5 percent silt, 25.5 percent clay, and 24 percent sand, with a pH of about 7.6 and an organic matter content of about 2.9 percent) and water at a 1:1 volumetric ratio. The prepared mud was dispensed in 365 mL aliquots into 16-ounce (oz.) non-perforated plastic pots with a surface area of 86.59 square centimeters (cm^2) leaving a headspace of 3 centimeters (cm) in each pot Mud was allowed to dry overnight prior to planting or transplanting. Rice seeds were planted in Sun Gro MetroMix® 306 planting mixture, which typically has a pH of 6.0 to 6.8 and an organic matter content of about 30 percent, in plastic plug trays. Seedlings at the second or third leaf stage of growth were transplanted into 840 mL of mud contained in 32-oz. non-perforated plastic pots with a surface area of 86.59 cm^2 4 days prior to herbicide application. The paddy was created by filling the headspace of the pots with 2.5 to 3 cm of water. When required to ensure good germination and healthy plants, a fungicide treatment and/or other chemical or physical treatment was applied. The plants were grown for 4-22 days in a greenhouse with an approximate 14 h photoperiod which was maintained at about 29° C during the day and 26° C. during the night. Nutrients were added as Osmocote® (19:6:12, N:P:K+ minor nutrients) at 2 g per 16-oz. pot and 4 g per 32-oz. pot. Water was added on a regular basis to maintain the paddy flood, and supplemental lighting was provided with overhead metal halide 1000-Watt lamps as necessary. The plants were employed for testing when they reached the first through fourth true leaf stage.
Treatments consisted of the acid or esters of 4-amino-3-chloro-5-fluoro-6-(4-chloro-2-fluoro-3-methoxy-phenyl)pyridine-2-carboxylic acid (compound A) each formulated as an SC (suspension concentrate) and various herbicidal components alone and in combination. Forms of compound A were applied on an acid equivalent basis.
Other herbicidal components were applied on an active ingredient basis and included photosystem II (PSII)-inhibits propanil formulated as […] bentazon-sodium formulated as Basagran®, and simetryne (technical grade material).
Treatment requirements for each compound or herbicidal component were calculated based upon the rates being tested, the concentration of active ingredient or acid equivalent in the formulation, an application volume of 2 mL per component per pot, and an application area of 86.59 cm^2 per pot.
For formulated compounds, a measured amount was placed in an individual 100 or 200 mL glass vial and was dissolved in a volume of 1.25% (v/v) Agri-Dex® crop oil concentrate to obtain application solutions.
For technical grade compounds, a weighed amount was placed in an individual 100 to 200 mL glass vial and was dissolved in a volume of acetone to obtain concentrated stock solutions. […] The concentrated stock solutions obtained were diluted with an equivalent volume of an aqueous mixture containing 2.5% (v/v) crop oil concentrate so that the final application solutions contained 1.25% (v/v) crop oil concentrate.
Applications were made by injecting with a pipetter appropriate amounts of the application solutions, individually and sequentially, into the aqueous layer of the paddy. Control plants were treated in the same manner with the solvent blank. Applications were made so that all treated plant material received the same concentrations of acetone and crop oil concentrate.
The treated plants and control plants were placed in a greenhouse as described above and water was added as needed to maintain a paddy flood. After approximately 3 weeks the condition of the test plants as compared with that of the untreated plants was determined visually and scored on a scale of 0 to 100 percent where 0 corresponds to no injury or growth inhibition and 100 corresponds to complete kill. […]

SMILES	Visual Weed Control (%) Obs (1680 g ai/ha, 21 DAA) [%]	Visual Weed Control (%) Obs (3360 g ai/ha, 21 DAA) [%]	Visual Weed Control (%) Obs (8.75 g ae/ha, 21 DAA) [%]	Visual Weed Control (%) Obs (17.5 g ae/ha, 21 DAA) [%]	Visual Weed Control (%) Obs (35 g ae/ha, 20 DAA) [%]	Visual Weed Control (%) Obs (35 g ae/ha, 21 DAA) [%]	Visual Weed Control (%) Obs (70 g ae/ha, 20 DAA) [%]	Visual Weed Control (%) Obs (42.4 g ae/ha, 20 DAA) [%]	Visual Weed Control (%) Obs (84.8 g ae/ha, 20 DAA) [%]
CCC(=O)Nc1ccc(Cl)c(Cl)c1 [Propanil, N-(3,4-dichlorophenyl)propanamide, reference compound]	50	90	–	–	–	–	–	–	–
COc1c(Cl)ccc(-c2nc(C(=O)OCc3ccccc3)c(Cl)c(N)c2F)c1F [Compound A Benzyl Ester, benzyl ester of 4-amino-3-chloro-5-fluoro-6-(4-chloro-2-fluoro-3-methoxy-phenyl)pyridine-2-carboxylic acid]	–	–	0	0	0	0	0	–	–
COc1c(Cl)ccc(-c2nc(C(=O)O)c(Cl)c(N)c2F)c1F [Compound A Acid, 4-amino-3-chloro-6-(4-chloro-2-fluoro-3-methoxyphenyl)-5-fluoropyridine-2-carboxylic acid]	–	–	0	0	–	0	–	0	0
